Earlier results as cited in patent publication US20230330238A1, “CHIMERIC CONJUGATES FOR DEGRADATION OF VIRAL AND HOST PROTEINS AND METHODS OF USE” (Dana-Farber Cancer Institute, Inc., priority 2020, published 2023).

Conditions: FIG. 8A, identical to FIG. 1C in Bernal F., et al. 2007; cited from earlier work

Q: For LSQETF(R8)DLWKLL(S5)EN [SAH-p53-4], which “α-helical stabilization (helicity by circular dichroism)” value is on record?
A: more stable than SAH-p53-1-3
